Usually solubility stands for the dissolved amount per volume that the medium holds. As usually defined, the pKa is the negative logarithm of the acid dissociation constant. A lower pKa goes with a group that gives up its proton readily.

The values that follow come from US20250154129A1, “CRYSTALLINE PHARMACEUTICALLY ACCEPTABLE SALT AND POLYMORPHIC FORM OF THE […] CYCLASE INHIBITOR VAROGLUTAMSTAT” (VIVORYON THERAPEUTICS N.V., priority 2023, published 2025).

The test system of one series is CCL2/CCR2 axis. As to conditions: three-week repeated administration, 30 and 100 mg/kg, twice daily; dose-dependent; cited from earlier work.
A short description of series [1]: Solubility in water of salt forms from 1 g scale salt screening in isopropanol. In kind it is physicochemical. The settings on record: 20° C. The text has this:
(§1) For such salts with a clear stoichiometry, their preparation was then repeated on 1 g scale (free base) in isopropanol with the acid slowly being added followed by seeding (seeds as obtained from the screening experiment). The solids were then further characterized with regard to: • Handling of crystals, • Crystal habit (microscopy, macroscopic): presence and shape of crystals, • Crystallinity (quality of crystals, XRPD), • Thermal analysis (DSC and TGA), • Hygroscopicity (DVS), and • Solubility in water.

Series [2] is described as follows: Solubility screen of the hydrochloride salt in single solvents (HPLC of mother liquor). Format: physicochemical. As to conditions: 20° C. The procedure: As a first step, a solubility screen of the hydrochloride salt (obtained from the 1 g scale experiments in Example 3.2) was performed in single solvents as listed in Table 5. This was done in order to identify the most suitable solvents for the process development.
The resulting suspensions were equilibrated for at least 4 hours and the mother liquors sampled for solubility determination by HPLC (see “Description of analytical procedures used in the Examples of the invention” for method details).
• Column: ZORBAX BONUS RP 150 mm×4.6 mm; 3.5 um • Eluent A: 0.05% HCOOH in H2O • Eluent B: 0.05% HCOOH in ACN • Flow 1.00 ml/min • Gradient: 2 min 100% Eluent A, linear increase of Eluent B from 2 to 20 min from 0 to 100% • Detection: UV at 225 nm

Series [3] in a line: Solubility screening of the Varoglutamstat free base (HPLC of mother liquor). In kind it is physicochemical. As for the experimental part:
75 mg of solid were transferred into a glass vial, a magnetic stir bar and 1.5 ml of solvent were added. […] The vials were then cooled to 20° C. and stirred for another 30 min. When completely dissolved, additional solid material was added, and the vial equilibrated for at least 3 hours at 20° C.
The mother liquor was sampled and analyzed for content via HPLC versus an external standard solution (1-point calibration).
• Column: PHENOMENEX LUNA C18, 50×4.6 mm, 3 μm, • Mobile phase A: 0.05% TFA in water, • Mobile phase B: 0.05% TFA in acetonitrile. • Gradient: 10% to 90% B in 10 min, 2 min hold, re-equilibrate to initial gradient composition. • Flow: 1.0 mL/min. • Detection: UV at 225 nm.

Series [4] is described as follows: pKa of Varoglutamstat (weak base). In kind it is physicochemical.
Series [5] concerns mice doubly transgenic for human APP and human glutaminyl cyclase. The settings on record: chronic oral dosing; cited from earlier work.
The nature of series [6]: Crystallinity by XRPD of salt forms from Example 3.2. Format: physicochemical. As to conditions: 1 g scale, isopropanol.
Text: as §1
• Angle: 2θ=2° to 2θ=40° • Sampling width 0.02 • Measurement time: 75 minutes.
Solid was positioned on sample holder, prepared with grease and flattened with a disc of glass.

The nature of series [7]: Hygroscopicity (DVS) of salt forms from Example 3.2. Format: physicochemical. As to conditions: 1 g scale, isopropanol.
Text: as §1
VTI-SA by TA Instruments with Isotherm Software for data acquisition and handling, glass sample holder and de-ionised water for vapour production.

The test system of a further series is Aβ soluble protofibrils. As to conditions: adult patients with early Alzheimer disease; cited from earlier work.
Setting [8] is: DMSO, solution obtained: solubility identical or higher than 50 mg/mL.
Setting [9] is: MeOH, solution obtained: solubility identical or higher than 50 mg/mL.
Where [10] appears, read: Water, solution obtained: solubility identical or higher than 50 mg/mL.

Consider `CCCOc1ccc(C2C(=O)NC(=O)N2c2ccc3[nH]cnc3c2)cc1` (stereo not drawn) [PQ529], for which, in the series with CCL2/CCR2 axis, the “serum and urine CCL2” value is given as “significantly reduced”; the urinary protein excretion result is “significantly reduced”.

On to `CCCOc1ccc([C@H]2CNC(=O)N2c2ccc3[nH]cnc3c2)cc1` [TosOH], for which, in series [1] (procedure of Example 4.1), the “Solubility in water” value came out at 3600 µM.

Turning to `CCCOc1ccc([C@H]2CNC(=O)N2c2ccc3[nH]cnc3c2)cc1.Cl` [Varoglutamstat Hydrochloride, (S)-1-(1H-benzo[d]imidazol-5-yl)-5-(4-propoxyphenyl) imidazolidin-2-one hydrochloride], the ML free base in series [2] (ACN) was 0.1 mg/mL; in series [2] (Acetone), 0.1 mg/mL; in series [2] (setting [8]), 51.7 mg/mL; in [2] (EtOAc), 0.0 mg/mL; in [2] (EtOH), 41.3 mg/mL; in [2] (Heptane), 0.0 mg/mL. Further, the ML free base in series [2] (IPA) was 3.6 mg/mL; in series [2] (IPrOAc), 0.0 mg/mL; in [2] (MEK) it was 0.0 mg/mL; in series [2] (MIBK), 0.1 mg/mL; in [2] (Me-THF) it was 0.0 mg/mL; in [2] (setting [9]) it was 47.5 mg/mL. The ML free base in series [2] (TBME) is 0.0 mg/mL; in series [2] (THF) it was 0.0 mg/mL; in series [2] (Toluene), 0.1 mg/mL; in series [2] (setting [10]), 52.0 mg/mL; in [2] (nBuOH), 3.9 mg/mL; in series [2] (nPrOH) it was 10.4 mg/mL. Also, the “calculated HCl” value is recorded as 0.1 mg/mL in series [2] (ACN); 0.1 mg/mL in [2] (Acetone); 57.3 mg/mL in series [2] (setting [8]); 0.0 mg/mL in [2] (EtOAc); 45.8 mg/mL in series [2] (EtOH); 0.0 mg/mL in [2] (Heptane). The “calculated HCl” value in series [2] (IPA) is listed as 4.0 mg/mL; in [2] (IPrOAc) it was 0.0 mg/mL; in [2] (MEK), 0.0 mg/mL; in series [2] (MIBK), 0.1 mg/mL; in series [2] (Me-THF), 0.0 mg/mL; in series [2] (setting [9]), 52.6 mg/mL. Also, the “calculated HCl” value in [2] (TBME) was 0.0 mg/mL; in series [2] (THF) it was 0.0 mg/mL; in [2] (Toluene) it was 0.1 mg/mL; in series [2] (setting [10]), 57.6 mg/mL; in series [2] (nBuOH), 4.4 mg/mL; in [2] (nPrOH) it was 11.5 mg/mL.

`CCCOc1ccc([C@H]2CNC(=O)N2c2ccc3[nH]cnc3c2)cc1` [Varoglutamstat free base, (S)-1-(1H-benzo[d]imidazol-5-yl)-5-(4-propoxyphenyl)imidazolidin-2-one]: the “solubility in organic solvents” value is recorded as “good” in series [3] (methyl-isobutyl-ketone, dichloro-methane, 20° C.) and “poorly soluble or insoluble” in series [3] (tert-butyl-methyl-ketone, ethyl-acetate, isopropyl-acetate, heptane, toluene, 20° C.). Besides, in [3] (organic solvent or mixture, thermodynamic from solid, acetone, tetrahydrofuran, methyl-tetrahydrofuran, methyl-ethylketone, 2-pentanone, acetonitrile, dimethylsulfoxide, methanol, ethanol, isopropanol, n-propanol, n-butanol, 20° C., read-out: excellent solubility in organic solvents), the solubility was not below 30 mg/mL. The same molecule had a solubility at 30 min in series [3] (thermodynamic from solid, water, equilibrated at 20° C.) of less than 1 mg/mL. Besides, the “Solubility in water” value was “almost insoluble” in series [3] (water, forms a sticky/oily suspension) and 890 µM in [1] (procedure of Example 4.1, listed as free base). Further, in series [4], the pKa turned out to be 4.55. In addition, the “brain pyroglutamate Aβ” value in series [5] is “reduce”. In [5], the “recall in the Morris water maze test of spatial memory” value is “improve”.

Fumarate: the “crystallinity (by XRPD)” value in series [6] is given as “mediocre”. Moreover, the hygroscopicity result in series [7] is “high”.

For Oxalate, the “crystallinity (by XRPD)” value in series [6] is given as “low”. Further, the hygroscopicity result in series [7] is listed as “high”.

B1: Leqembi: humanized IgG1 monoclonal antibody which binds to Aβ soluble protofibrils with high affinity (antibody, chains of the INN, looked up, V domains shown)
VH: EVQLVESGGGLVQPGGSLRLSCSASGFTFSSFGMHWVRQAPGKGLEWVAYISSGSSTIYYGDTVKGRFTISRDNAKNSLFLQMSSLRAEDTAVYYCAREGGYYYGRSYYTMDYWGQGTTVTVSS
VL: DVVMTQSPLSLPVTPGAPASISCRSSQSIVHSNGNTYLEWYLQKPGQSPKLLIYKVSNRFSGVPDRFSGSGSGTDFTLRISRVEAEDVGIYYCFQGSHVPPTFGPGTKLEIK
In the case of B1, in the series on Aβ soluble protofibrils, the brain amyloid entry was “reduce” and the cognitive decline entry was “modestly slow”.
